From PubChem BioAssay AID1259426 (Fisher Drug Discovery Resource Center, 2018) come the findings set out here.

Active and inactive are the calls of the source.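 The calls were made as follows: active = EC50 under a set limit in control cells lacking the mosquito receptor, marking a fluorescence artifact; inactive = the rest.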 Where only a bound is given, the exact number is not on record here.

The assay addresses HEK293 Galpha15/GCaMP6s without NPYLR7, calcium fluorescence. The assay is described as follows: nonspecific activation in parental Galpha15/GCaMP6s cells – cell-based, HEK293 lacking NPYLR7, counter-screen for mosquito NPYLR7 agonist project, dose response (AID 1259426).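 Also: potency for a rise in fluorescence over baseline.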 For orientation: A counterscreen serves to expose hits that act by an unwanted route or on another target.
In the case of `CN(C)/C=C1\C(=O)N(c2c(Cl)cccc2Cl)c2cc(C=C(C#N)C#N)ccc21`, the EC50 was 18.4 µM.
Consider `Cc1cc(C)c2cc3c(cc2n1)CCN3CC(O)CO` (stereo unspecified), for which the EC50 was 2.78 µM.
As to `N#CC1C(=N)SC(=N)C(C#N)C1c1ccc(Cl)cc1Cl` (stereo unspecified), the EC50 was 7.76 µM.
As to `Cc1cc(C=C2Sc3ccccc3N2C)cc(C)[n+]1-c1ccccc1`, the EC50 is 1.51 µM.
`CCN(CC)c1ccc2cc(C(N)=O)/c(=N\NC(N)=S)oc2c1`: the EC50 is less than 0.039 µM.
Take `C(/C=C/CC=Nc1ccccc1)=Nc1ccccc1`: the EC50 was 14.5 µM.
As to `N#CC1C(=N)SC(=N)C(C#N)C1c1cccc(F)c1` (stereo unspecified), the EC50 is 7.03 µM.
As for `CCOc1cc(/C=C2/NC(=S)NC2=O)cc(Br)c1O`, the EC50 was 6.37 µM.
For `CN1C(=S)N(CCCN2CCOCC2)C(=O)/C1=C/c1ccc(N(C)C)cc1`, the EC50 was > 20 µM (inactive).
In the case of `Clc1cccc2ccc(CN3CCn4cncc4C3)nc12` it was 19.2 µM; in that of `O=C1/C(=C/c2cccc(Cl)c2)Oc2c1ccc(O)c2CN1CCN(CCO)CC1`, 11.8 µM.
For `CCOc1cc(/C=C(\C#N)c2nc3ncc(Br)cc3[nH]2)ccc1O`, the EC50 was 2.3 µM.
The figure for `CC(C)N=c1c([N+](=O)[O-])nn(-c2ccc(Cl)cc2)n1O` is > 20 µM (inactive).
As to `CCn1c(=O)c2c(nc(/C=C/c3ccc(OC)c(OC)c3)n2C)n(CC)c1=O`, the EC50 was > 20 µM (inactive).
For the molecule `N#C/C(=C/c1ccc(N2CCCCCC2)o1)c1ccc(F)cc1`, the EC50 was 19.3 µM.
Take `CCCS(=O)(=O)N1CCN=C1SCc1ccccc1C`: the EC50 is > 20 µM (inactive).
Regarding `CC(C)NC[C@H](O)c1ccc(O)c(O)c1`, the EC50 is less than 0.039 µM.
In the case of `CCOC(=O)C1CCCN(CC(=O)N2N=C(c3ccccc3Cl)CC2c2ccc(Cl)cc2)C1` (stereo unspecified), the EC50 was > 20 µM (inactive).
The figure for `CCC(C)[n+]1c(C)cc(C=C2Sc3ccccc3N2CC)cc1C` (stereo unspecified) is 3.73 µM; for `CC(C)NCC(O)c1ccc(O)c(O)c1` (stereo unspecified) it is less than 0.039 µM; for `Cc1ccccc1CNc1ncnc2c1ncn2C1OC(CO)C(O)C1O` (stereo unspecified) it is 6.77 µM.
In the case of `CCc1nn(C(C)C(=O)NC(C)CCc2ccco2)c(=O)c2cc3occc3n12` (stereo unspecified), the EC50 was 0.743 µM.
As for `CCCC(C(=O)O)N1C(=O)/C(=C/c2ccc(O)cc2)SC1=S` (stereo unspecified), the EC50 was 8.28 µM.
Take `CCN1C(=Cc2cc(C)[n+](CCOC)c(C)c2)Sc2ccccc21`: the EC50 is 17.6 µM.
In the case of `COc1cc(C=CC(=O)c2ccc3c(c2)OCCO3)cc(Br)c1O`, the EC50 was 0.151 µM.
The figure for `COc1ccccc1N=c1oc2cc(O)ccc2cc1-c1nc2ccccc2[nH]1` is 0.805 µM; for `N#Cc1cc(C(=O)c2cc(Cl)cc(Cl)c2O)cn(-c2nccs2)c1=O` it is > 20 µM (inactive).
On to `N#C/C(=C\c1ccc(O)c(O)c1)C(=O)NCc1ccccc1`, for which the EC50 is > 20 µM (inactive).
On to `Cn1c(/C(C#N)=C/c2ccc(N3CCOCC3)o2)nc2ccccc21`, for which the EC50 was > 20 µM (inactive).
The figure for `C=CCC1=CC(=Cc2c(N)n3nc(Cc4cccs4)sc3nc2=O)C=C(OC)C1=O` is 2.43 µM; for `COc1ccc2nc(C=Cc3cc(Br)c(O)c(OC)c3)sc2c1` it is > 20 µM (inactive); for `COc1ccccc1Oc1nc2ccccn2c(=O)c1/C=C(\C#N)c1nc2ccccc2s1` it is > 20 µM (inactive).
For the molecule `COc1cccc(/C=C2\Oc3c(ccc4c3CN(Cc3ccncc3)CO4)C2=O)c1`, the EC50 is 10.5 µM.
Regarding `COCCCN1COc2ccc3c(c2C1)O/C(=C\c1cc(OC)c(OC)c(OC)c1)C3=O`, the EC50 is 11.4 µM.
For the molecule `N#CC1C(=N)SC(=N)C(C#N)C1c1cccc(O)c1` (stereo unspecified), the EC50 is 10.1 µM.
As to `CCc1nc(N=C(N)N)nc2cc(C)ccc12`, the EC50 was > 20 µM (inactive).
As to `CN(C)c1ccc(/C=C2/SC(=S)N(CC(=O)O)C2=O)cc1Br`, the EC50 is 0.346 µM.
For the molecule `CCOc1cc(/C=C2\C(=N)N3N=CSC3=NC2=O)cc(Br)c1OC(=O)c1ccccc1`, the EC50 was 3.04 µM.
`CSc1nnc2c(n1)OC(c1ccc(OC(=O)c3ccc(Br)cc3)cc1)Nc1ccccc1-2` (stereo unspecified): the EC50 was > 20 µM (inactive).
`C=CCN1C(=O)C(Cc2ccc(OC)cc2)S/C1=N/N=C\c1cccs1` (stereo unspecified): the EC50 was > 20 µM (inactive).
For `CCOc1cccc(C=C2Oc3cc(O)ccc3C2=O)c1OC`, the EC50 is > 20 µM (inactive).
On to `CN1C(=CC=C2C(=O)CC(C)(C)CC2=O)C(C)(C)c2ccccc21`, for which the EC50 was 13.1 µM.
In the case of `NCCNc1ccc2c3c(cccc13)C(=O)N(c1ccc(Cl)cc1)C2=O` it was 0.47 µM; in that of `CCOc1cc(/C=C2\SC(=S)N(NC(=O)c3ccccc3O)C2=O)ccc1O`, > 20 µM (inactive).
For `O=C1c2cccc3c(NCCO)ccc(c23)C(=O)N1CCO`, the EC50 is 0.0846 µM.
The figure for `CCN(CC)c1ccc2c(-c3ccccc3C(=O)O)c3ccc(=[N+](CC)CC)cc-3oc2c1` is 3.62 µM; for `O=c1oc2cc(O)ccc2cc1-c1nc2ccccc2o1` it is 4.91 µM; for `CCOc1ccc(C(=O)Nc2sc3c(c2-c2nc4ccccc4s2)CCN(C)C3)cc1` it is > 20 µM (inactive).
Regarding `COc1cc(Br)c(O)c(/C=N\n2c(C)n[nH]c2=S)c1`, the EC50 is > 20 µM (inactive).
The figure for `CCOC(=O)c1c(-c2ccccc2)csc1N=Cc1nc(-c2ccco2)oc1O` is > 20 µM (inactive); for `NC(=NCCCCCCN=C(N)N=C(N)Nc1ccc(Cl)cc1)N=C(N)Nc1ccc(Cl)cc1` it is > 20 µM (inactive).
With `COc1cc(NC(=O)N2CC(=O)N3CCc4c(F)cccc4C3C2)cc(OC)c1OC` (stereo unspecified), the EC50 was > 20 µM (inactive).
For `CSCCC(C(=O)O)N1C(=O)/C(=C/c2ccc(O)cc2)SC1=S` (stereo unspecified), the EC50 is 6.49 µM.
For the molecule `CCOC(=O)N1CCC(NC(=O)c2sc3nc4c(c(C(F)(F)F)c3c2N)CC(C)CC4)CC1` (stereo unspecified), the EC50 is > 20 µM (inactive).
As for `O=C1CSC(=S)N1N=Cc1cc(Br)c(O)c(Br)c1`, the EC50 is 2.31 µM.
In the case of `CCN1CCN(Cc2c(O)ccc3c2O/C(=C\c2cc4cc(Br)ccc4o2)C3=O)CC1`, the EC50 is 6.94 µM.
In the case of `Nc1ncnc2c1ncn2[C@@H]1O[C@H](CO)[C@H](O)C1O` (stereo partly specified), the EC50 was 7.87 µM.
`Cc1csc(-c2cc3ccc(O)c(CN4CCN(CCO)CC4)c3oc2=O)n1`: the EC50 was less than 0.039 µM.
For the molecule `O=C(O)CCN1C(=O)/C(=C/c2ccc(O)cc2)SC1=S`, the EC50 was 2.69 µM.
Regarding `CCC(CO)[n+]1c(C)cc(C=C2Sc3ccccc3N2CC)cc1C` (stereo unspecified), the concentration giving a half-maximal response (EC50) is 1.86 µM.
Turning to `COc1ccc(CCN2COc3ccc4c(c3C2)O/C(=C\c2ccncc2)C4=O)cc1OC`, the 50% effective concentration (EC50) is 14.8 µM.
Regarding `O=c1[nH]c(SCCO)nc2sc3c(c12)CCCC3`, the EC50 is > 20 µM (inactive).
The figure for `COc1cc(C=C(C#N)S(=O)(=O)c2cc(Br)ccc2Br)ccc1O` is 19.5 µM; for `O=C(O)CSc1ccc2c3c(cccc13)C(=O)c1ccccc1-2` it is 0.294 µM; for `COc1ccc(Cl)cc1NC(=O)/C(C#N)=C/c1coc2ccc(C)cc2c1=O` it is > 20 µM (inactive).
Consider `CCC(CO)[n+]1c(C)cc(C=C2Sc3ccccc3N2Cc2ccccc2)cc1C` (stereo unspecified), for which the EC50 is > 20 µM (inactive).
As to `C[C@H](O)C(=O)C1=Nc2c(nc(N)[nH]c2=O)NC1`, the EC50 is > 20 µM (inactive).
As for `CC1=NCCc2c1[nH]c1cc(O)ccc21`, the EC50 was 0.419 µM.
Consider `COc1cc(C=C2SC(=S)NC2=O)cc(Br)c1O`, for which the EC50 is > 20 µM (inactive).
As to `COC(=O)c1cnc(/C=C/c2cc(C)c(O)c(C)c2)s1`, the EC50 was > 20 µM (inactive).
In the case of `O=C1CCCC2Nc3ncnc(Cl)c3OC12` (stereo unspecified), the EC50 was 6.38 µM.
For the molecule `NC(=NC1C2CC3CC(C2)CC1C3)Nc1ccc(I)cc1` (stereo unspecified), the EC50 is 14.1 µM.
As to `CCOc1ccc2nc3cc(N)ccc3c(N)c2c1`, the EC50 is 4.44 µM.
As to `O=C1c2ccccc2-c2nn(CN3CCN(c4ccccc4)CC3)c3cccc1c23`, the EC50 was > 20 µM (inactive).
For `O=C(CNCc1ccccc1)N1CC(=O)N(c2cccc(Cl)c2)C1`, the EC50 was > 20 µM (inactive).
In the case of `CC(=O)OC(C)C[N+](C)(C)C` (stereo unspecified), the EC50 is > 20 µM (inactive).
Consider `CCC(C)[n+]1c(C)cc(C=C2Sc3ccccc3N2C)cc1C` (stereo unspecified), for which the EC50 was 7.94 µM.
With `C[C@@H](NC(=O)CN1Cc2ccc(N3CCOCC3)nc2C1=O)c1ccccc1`, the EC50 is > 20 µM (inactive).
As to `O=c1nc2sc3[nH]c(=O)sc3cc-2s1`, the EC50 was less than 0.039 µM.
Take `Oc1oc(-c2ccccc2Br)nc1C=Nc1ccccc1`: the EC50 was 10.6 µM.
Take `CCN(CC)CC[n+]1c(C)cc(C=C2Sc3ccccc3N2C)cc1C`: the EC50 is > 20 µM (inactive).
The figure for `COc1ccccc1OCCCOc1ccc(Br)cc1Cl` is > 20 µM (inactive).
In the case of `O=C(Cc1ccc2c(c1)CCC2)NCC1CCN(c2ccccc2)C1` (stereo unspecified), the EC50 was > 20 µM (inactive).
As to `CCN1CCN(C(=O)c2ccc(Cn3ccsc3=NC(=O)c3ccc(OC)c(OC)c3)o2)CC1`, the EC50 is > 20 µM (inactive).
The figure for `COCCOc1ccc(NC(=O)N(C)C(C)C2(C)CC2)cn1` (stereo unspecified) is > 20 µM (inactive).
In the case of `CN(Cc1cnc2ccccc2n1)C(=O)C1CC2(CCNCC2)CN1` (stereo unspecified), the EC50 was > 20 µM (inactive).
Take `O=c1oc2cc(O)ccc2cc1-c1nc2ccccc2s1`: the EC50 was 0.0533 µM.
As for `COc1cccc(CNC2CC2)c1OCc1nc(CO)cs1`, the EC50 is > 20 µM (inactive).
As for `COc1cc(C=C2Oc3cc(O)ccc3C2=O)cc(OC)c1OC`, the EC50 is 4.83 µM.
For the molecule `COc1ccc(NC(=O)C2C=CCN2)cc1NC(=O)c1ccco1` (stereo unspecified), the EC50 is > 20 µM (inactive).
With `COc1cc(/C=C/c2nc3ccccc3o2)cc(Cl)c1O`, the EC50 is 1.7 µM.
Take `Cc1cccc(Oc2nc3ccccn3c(=O)c2/C=C(\C#N)c2nc3ccccc3s2)c1`: the EC50 was > 20 µM (inactive).
As for `COc1cc(C=C2C=c3c(O)cccc3=C2O)cc(Cl)c1O`, the EC50 was 0.524 µM.
On to `Cc1cccc(N2C(=O)NC(=O)/C(=C/c3cn(C)c4ccccc34)C2=O)c1`, for which the EC50 is > 20 µM (inactive).
On to `CN1C=CC(=C/C=C2/C=Nc3ccccc32)C=C1`, for which the EC50 is 9.41 µM.
In the case of `COc1ccc(C(C)NS(=O)(=O)c2ccc(Cl)cc2C(F)(F)F)cc1F` (stereo unspecified), the EC50 was 15.3 µM.

For orientation: EC50 means the midpoint of the concentration-response curve.
